Molecular target: T1, Dimer of Gag-Pol polyprotein [489-587] (Human immunodeficiency virus 1, UniProt P12497)
T1 construct: 489-587
Experiment: Protease Inhibition Assay
Method: For determination of IC50 values, HIV-1 protease was added to assay buffer containing inhibitor and the substrate (H-His-Lys-Ala-Arg-Val-Leu- (p-NO2) Phe-Glu-Ala-norleucine-Ser-NH2). The Leu- (p-NO2) Phe bond of the substrate was cleaved by the enzyme, and the substrate and products were separated by reversed-phase HPLC. Absorbance was measured at 220 nm, peak areas were determined, and percentage conversion to product was calculated.

SMILES: Cc1cc(SC2C(=O)CC(CCc3ccccc3)(C(C)C)OC2=O)c(C(C)(C)C)cc1O (stereo not drawn)
- Ki: 1.1 nM

SMILES: Cc1cc(SC2C(=O)CC(CCc3ccc(O)cc3)(C3CCCCC3)OC2=O)c(C(C)(C)C)cc1O (stereo not drawn) [3-(2-tert-Butyl-4-hydroxy-5-methyl-phenylsulfanyl)-6-cyclohexyl-4-hydroxy-6-[2-(4-hydroxy-phenyl)-ethyl]-5,6-dihydro-pyran-2-one]
- IC50 (pH 6.2, 37 °C): 2.9 nM

SMILES: COCOCCOc1cc(C(C)(C)C)c(SC2C(=O)CC(C)(CCc3ccc(O)cc3)OC2=O)cc1C (stereo not drawn) [3-({2-tert-butyl-4-[2-(methoxymethoxy)ethoxy]-5-methylphenyl}sulfanyl)-4-hydroxy-6-[2-(4-hydroxyphenyl)ethyl]-6-methyl-5,6-dihydro-2H-pyran-2-one]
- IC50: 20 nM

SMILES: Cc1ccc(C(C)(C)C)c(SC2C(=O)CC(CCc3ccccc3)(C(C)C)OC2=O)c1 (stereo not drawn) [3-[(2-tert-butyl-5-methylphenyl)sulfanyl]-4-hydroxy-6-(2-phenylethyl)-6-(propan-2-yl)-5,6-dihydro-2H-pyran-2-one]
- IC50: 1.1 nM

SMILES: Cc1ccc(C(C)(C)C)c(SC2C(=O)CC(CCc3ccc(O)cc3)OC2=O)c1 (stereo not drawn) [3-[(2-tert-butyl-5-methylphenyl)sulfanyl]-4-hydroxy-6-[2-(4-hydroxyphenyl)ethyl]-5,6-dihydro-2H-pyran-2-one]
- IC50 (pH 6.2, 37 °C): 338 nM

SMILES: CCCC1(CCc2ccc(O)cc2)CC(=O)C(Sc2cc(C)ccc2C(C)(C)C)C(=O)O1 (stereo not drawn) [3-[(2-tert-butyl-5-methylphenyl)sulfanyl]-4-hydroxy-6-[2-(4-hydroxyphenyl)ethyl]-6-propyl-5,6-dihydro-2H-pyran-2-one]
- IC50 (pH 6.2, 37 °C): 19 nM

SMILES: Cc1ccc(C(C)(C)C)c(SC2C(=O)CC(CCc3ccc(O)cc3)(C3CCCCC3)OC2=O)c1 (stereo not drawn) [3-[(2-tert-butyl-5-methylphenyl)sulfanyl]-6-cyclohexyl-4-hydroxy-6-[2-(4-hydroxyphenyl)ethyl]-5,6-dihydro-2H-pyran-2-one]
- IC50 (pH 6.2, 37 °C): 33 nM

SMILES: Cc1cc(SC2C(=O)CC(CCc3ccccc3)(C(C)C)OC2=O)c(C(C)(C)C)cc1OCCO (stereo not drawn) [3-{[2-tert-butyl-4-(2-hydroxyethoxy)-5-methylphenyl]sulfanyl}-4-hydroxy-6-(2-phenylethyl)-6-(propan-2-yl)-5,6-dihydro-2H-pyran-2-one]
- IC50: 2.6 nM

SMILES: CCCCCC1(CCc2ccc(O)cc2)CC(=O)C(Sc2cc(C)c(OCCO)cc2C(C)(C)C)C(=O)O1 (stereo not drawn) [3-{[2-tert-butyl-4-(2-hydroxyethoxy)-5-methylphenyl]sulfanyl}-4-hydroxy-6-[2-(4-hydroxyphenyl)ethyl]-6-pentyl-5,6-dihydro-2H-pyran-2-one]
- IC50: 2.9 nM

SMILES: CCCC1(CCc2ccc(O)cc2)CC(=O)C(Sc2cc(C)c(OCCO)cc2C(C)(C)C)C(=O)O1 (stereo not drawn) [3-{[2-tert-butyl-4-(2-hydroxyethoxy)-5-methylphenyl]sulfanyl}-4-hydroxy-6-[2-(4-hydroxyphenyl)ethyl]-6-propyl-5,6-dihydro-2H-pyran-2-one]
- IC50: 6 nM

SMILES: Cc1cc(SC2C(=O)CC(CCc3ccc(O)cc3)(C3CCCC3)OC2=O)c(C(C)(C)C)cc1OCCO (stereo not drawn) [3-{[2-tert-butyl-4-(2-hydroxyethoxy)-5-methylphenyl]sulfanyl}-6-cyclopentyl-4-hydroxy-6-[2-(4-hydroxyphenyl)ethyl]-5,6-dihydro-2H-pyran-2-one]
- IC50: 2.8 nM

SMILES: Cc1cc(SC2C(=O)CC(CCc3ccccc3)(C(C)C)OC2=O)c(C(C)(C)C)cc1CO (stereo not drawn) [3-{[2-tert-butyl-4-(hydroxymethyl)-5-methylphenyl]sulfanyl}-4-hydroxy-6-(2-phenylethyl)-6-(propan-2-yl)-5,6-dihydro-2H-pyran-2-one]
- IC50: 2.2 nM

SMILES: Cc1cc(SC2C(=O)CC(CCc3ccc(O)cc3)(CC(C)C)OC2=O)c(C(C)(C)C)cc1CO (stereo not drawn) [3-{[2-tert-butyl-4-(hydroxymethyl)-5-methylphenyl]sulfanyl}-4-hydroxy-6-[2-(4-hydroxyphenyl)ethyl]-6-(2-methylpropyl)-5,6-dihydro-2H-pyran-2-one]
- IC50 (pH 6.2, 37 °C): 3.3 nM

Source: BindingDB's records for doi:10.1016/s0968-0896(99)00215-1 (Parke-Davis Pharmaceutical Research, 1999)
